In BindingDB's records for doi:10.1016/j.bmcl.2012.10.040 (Pfizer, 2013):

Tests used:
[1] = target: T1, Prostaglandin G/H synthase 2 (Canis lupus familiaris, UniProt Q8SPQ9); experiment: Inhibition of COX2 in dog whole blood assessed as LPS-induced PGE2 production
T1 sequence (Q8SPQ9 whole entry): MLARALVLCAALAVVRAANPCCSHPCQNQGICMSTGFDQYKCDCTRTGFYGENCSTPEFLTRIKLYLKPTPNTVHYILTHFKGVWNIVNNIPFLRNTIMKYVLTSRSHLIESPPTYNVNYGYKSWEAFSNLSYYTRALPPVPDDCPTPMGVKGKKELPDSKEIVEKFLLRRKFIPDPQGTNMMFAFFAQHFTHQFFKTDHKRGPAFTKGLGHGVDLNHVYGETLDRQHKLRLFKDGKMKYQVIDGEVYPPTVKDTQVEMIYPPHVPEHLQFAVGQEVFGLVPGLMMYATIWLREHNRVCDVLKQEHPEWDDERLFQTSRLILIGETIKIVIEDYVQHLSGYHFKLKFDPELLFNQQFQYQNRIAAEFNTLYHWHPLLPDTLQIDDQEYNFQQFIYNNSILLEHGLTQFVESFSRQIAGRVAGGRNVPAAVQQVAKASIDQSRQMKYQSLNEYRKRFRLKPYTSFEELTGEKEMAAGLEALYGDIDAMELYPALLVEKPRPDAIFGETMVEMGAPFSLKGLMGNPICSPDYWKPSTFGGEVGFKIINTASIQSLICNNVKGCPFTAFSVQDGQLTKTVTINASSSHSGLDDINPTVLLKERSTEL

[2] = target: T2, Prostaglandin G/H synthase 2 (Homo sapiens, UniProt P35354); experiment: Inhibition of COX2 in human fetal fibroblast assessed as inhibition of IL-1beta-mediated PGE2 production after 50 mins by ELISA
T2 sequence (P35354 whole entry): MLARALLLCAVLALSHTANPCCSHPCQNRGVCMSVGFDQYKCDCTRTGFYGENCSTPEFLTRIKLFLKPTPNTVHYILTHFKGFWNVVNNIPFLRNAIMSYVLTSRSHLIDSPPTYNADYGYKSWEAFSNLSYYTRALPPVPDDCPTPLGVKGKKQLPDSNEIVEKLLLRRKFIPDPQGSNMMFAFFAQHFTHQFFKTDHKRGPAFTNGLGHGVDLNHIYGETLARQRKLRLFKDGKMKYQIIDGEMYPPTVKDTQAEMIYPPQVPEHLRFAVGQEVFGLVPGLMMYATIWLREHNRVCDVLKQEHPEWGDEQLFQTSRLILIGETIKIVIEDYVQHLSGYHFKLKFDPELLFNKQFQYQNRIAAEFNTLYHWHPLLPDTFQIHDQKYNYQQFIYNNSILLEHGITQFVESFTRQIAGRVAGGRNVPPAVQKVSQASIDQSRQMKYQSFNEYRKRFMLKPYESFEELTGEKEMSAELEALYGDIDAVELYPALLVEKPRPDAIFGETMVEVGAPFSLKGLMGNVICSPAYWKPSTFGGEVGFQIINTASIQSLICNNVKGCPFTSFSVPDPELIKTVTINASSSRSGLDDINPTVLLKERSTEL

[3] = target: T2, Prostaglandin G/H synthase 2; experiment: Inhibition of COX2 in human whole blood assessed as PGE2 level incubated for 15 mins prior to substrate addition measured after 10 mins by ELISA
[4] = target: T2, Prostaglandin G/H synthase 2; experiment: Inhibition of COX2 in human whole blood assessed as LPS-induced PGE2 production incubated 15 mins prior to LPS challenge measured after 24 hrs by EIA
[5] = target: T3, Prostaglandin G/H synthase 2 (Rattus norvegicus, UniProt P35355); experiment: Inhibition of COX2 in rat synovial fibroblast assessed as inhibition of IL-1-mediated PGE2 production
T3 sequence (P35355 whole entry): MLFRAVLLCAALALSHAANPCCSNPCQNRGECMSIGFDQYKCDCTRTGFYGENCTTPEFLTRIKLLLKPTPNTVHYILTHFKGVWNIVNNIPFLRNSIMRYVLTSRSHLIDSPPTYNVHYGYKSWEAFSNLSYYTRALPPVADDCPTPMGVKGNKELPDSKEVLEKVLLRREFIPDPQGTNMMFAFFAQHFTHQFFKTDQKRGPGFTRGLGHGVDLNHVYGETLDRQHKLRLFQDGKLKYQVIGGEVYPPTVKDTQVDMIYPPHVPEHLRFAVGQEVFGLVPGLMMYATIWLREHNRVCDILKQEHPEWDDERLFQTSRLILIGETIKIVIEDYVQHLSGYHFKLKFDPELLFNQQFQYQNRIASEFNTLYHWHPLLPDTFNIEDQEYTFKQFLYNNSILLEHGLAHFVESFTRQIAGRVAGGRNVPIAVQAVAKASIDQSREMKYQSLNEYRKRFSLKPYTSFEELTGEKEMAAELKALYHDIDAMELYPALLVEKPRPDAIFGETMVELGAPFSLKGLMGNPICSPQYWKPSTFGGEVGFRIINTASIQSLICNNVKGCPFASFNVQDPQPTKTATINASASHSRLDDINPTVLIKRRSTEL

Row | IC50 [1] [µM] | IC50 [2] [µM] | IC50 [3] [µM] | IC50 [4] [µM] | IC50 [5] [µM] | Compound
1 | 1.23 | 0.035 | 7.56 | 0.934 | > 30 | O=C(N[C@H]1CCC[C@@H]1OCc1ccccc1)C1CCN(c2nc3cc(Cl)ccc3o2)CC1
2 | – | 1.01 | – | – | – | O=C(NC1CCCC1)C1CCN(c2nc3cc(Cl)ccc3o2)CC1
3 | – | 0.296 | 27.4 | – | – | O=C(N[C@@H]1CCC[C@H]1OCc1ccccc1)C1CCN(c2nc3cc(Cl)ccc3o2)CC1
4 | – | 1.26 | 11.1 | – | – | O=C(N[C@H]1CC[C@@H](CO)CC1)C1CCN(c2nc3cc(Cl)ccc3o2)CC1

Second part, the molecule before the results:

Row | Compound | IC50 [1] [µM] | IC50 [2] [µM] | IC50 [3] [µM] | IC50 [4] [µM] | IC50 [5] [µM]
5 | O=C(N[C@H]1CCC[C@H]1OCc1ccccc1)C1CCN(c2nc3cc(Cl)ccc3o2)CC1 | – | 0.618 | 76.6 | – | –
6 | O=C(N[C@H]1CCC[C@@H]1COc1ccccc1)C1CCN(c2nc3cc(Cl)ccc3o2)CC1 | – | 0.085 | > 33.6 | – | –
7 | O=C(N[C@H]1CC[C@H](CO)CC1)C1CCN(c2nc3cc(Cl)ccc3o2)CC1 | – | > 10 | – | – | –
